The source of these data is patent US11931429B2, “Chemiluminescent probes for diagnostics and in vivo imaging” (RAMOT AT TEL-AVIV UNIVERSITY LTD., priority 2016, dated 2024).

Entries after “also recorded” stand apart in the source; their conditions may differ.

Data set [1] is described as follows: Light-induced decomposition under normal room illumination, monitored by RP-HPLC. Conditions: PBS pH 7.4, normal room illumination. In kind it is physicochemical. As for the experimental part:
Probes (300 μM) were incubated in PBS (100 mM), pH 7.4, at ambient temperature.
Light-induced decomposition of dioxetane-dye conjugates. While working on the synthesis of the dioxetane-fluorophore conjugates, we encountered an unexpected phenomenon. Although Probe 1 seemed to be photostable, Probes 2 and 3 appeared to decompose under normal room illumination conditions. We measured the photostability of the probes in aqueous solution (PBS, pH 7.4) under normal room illumination. The light-induced decomposition was monitored over several hours by a RP-HPLC assay (FIG. 2).

Data set [2] relates to β-galactosidase.
Protocol: Spectra were recorded in PBS (100 mM), pH 7.4, in the presence of 1.5 units/mL β-galactosidase (continuous lines). Dotted line is the fluorescence emission spectrum (DCL—direct chemiluminescence).
Fluorescence and chemiluminescence were recorded on Molecular Devices Spectramax i3x.
Chemiluminescence parameters measured for Probes 1, 2 and 3 and their ability to detect and image β-galactosidase. Next, we measured the light emission of the probes, as a function of time, in the presence and in the absence of β-galactosidase.
The chemiluminescence quantum yield (ϕCL) of probes 2 and 3 was calculated using that of Probe 1 as a known standard (Edwards et al., 1994).
Data set [3] has as its system β-galactosidase. The settings on record: Probe 1, known standard (Edwards et al., 1994); cited from earlier work.
The next data set relates to HEK293-LacZ stable cells. Nature of the data set: Chemiluminescence microscopy imaging of β-galactosidase activity in HEK293-LacZ cells. In kind it is cell-based. Conditions: 5 μM, 20 min incubation, 60× objective, seconds exposure (Study 2). On the procedure: (§1) Images were obtained following 20 min incubation with cell culture medium containing Probe 3 (5 μM).
(§2) Images were obtained following 20 min incubation with cell culture medium containing Probe 7 (5 μM). Images were taken by the LV200 Olympus-microscope using 60× objective and 40s exposure time.
(§3) Chemiluminescence microscopy imaging of β-galactosidase activity. Chemiluminescence images were acquired using Olympus LV200 inverted microscope fitted with an EMCCD camera (Hamamatsu C9100-13). HEK293 LacZ stable cells (amsbio SC003) and HEK293-WT cells (control) were grown on 35 mm glass bottom petri dishes at 37° C. for 24 h. Cell culture medium was changed to Molecular Probes® Live Cell Imaging Solution containing 5 μM of Probe 3. Cells were incubated for another 20 minutes at 37° C. Thereafter, images were recorded with 20 […] exposure time.
To improve the image quality, the HEK293-LacZ cells were fixed by using 4% formaldehyde and permeabilized with 0.1% Triton X-100. The cells were then incubated with Probe 3 and imaged by the microscope using a 60× objective (NA 1.42).
Chemiluminescence images were acquired using Olympus LV200 inverted microscope fitted with an EMCCD camera (Hamamatsu C9100-13). […] Thereafter, images were recorded with 40 seconds exposure time.

A further data set has as its system HEK293-WT cells. The data set is described as follows: Chemiluminescence microscopy imaging, HEK293-WT control cells. It is filed as cell-based. The settings on record: 5 μM, 20 min incubation (Study 2). On the procedure:
as §1, §2, §3
Chemiluminescence images were acquired using Olympus LV200 inverted microscope fitted with an EMCCD camera (Hamamatsu C9100-13). HEK293 LacZ stable cells (amsbio SC003) and HEK293-WT cells (control) were grown on 35 mm glass bottom petri dishes at 37° C. for 24 h. Cell culture medium was changed to Molecular Probes® Live Cell Imaging Solution containing 5 μM of probe 4. Cells were incubated for another 20 minutes at 37° C. Thereafter, images were recorded with 40 seconds exposure time.

As to `COC1(c2cccc(O[C@@H]3OC(CO)[C@H](O)[C@H](O)C3O)c2Cl)OOC12C1CC3CC(C1)CC2C3` (stereo partly drawn) [Probe 1, reference compound], the “photostability under normal room illumination” value in data set [1] is recorded as “photostable; also recorded: unaffected by light”. In addition, in the data set with β-galactosidase [2] (1 μM, PBS (100 mM) pH 7.4, 1.5 units/mL β-galactosidase), the “λmax [nm] (chemiluminescence emission)” value came out at 470 nm. Further, the “Relative ΦCL” value in the data set on β-galactosidase [2] (relative to Probe 1) was determined as 1. In the data set on β-galactosidase [3], the “ΦCL (chemiluminescence quantum yield)” value was 3.3 × 10^−5.
Turning to `COC(=O)/C=C/c1ccc(C2(OC)OOC23C2CC4CC(C2)CC3C4)c(Cl)c1OCc1ccc(O[C@@H]2OC(CO)[C@H](O)C(O)C2O)cc1` (stereo partly drawn) [Probe 7], the “chemiluminescence images of HEK293-LacZ cells” value with HEK293-LacZ stable cells is “high quality chemiluminescence images; also recorded: excellent chemiluminescence cell images”. Also, the “chemiluminescence signal of HEK293-WT cells” value with HEK293-WT cells is reported as “No chemiluminescence signal at all was observed”.
